One block for each molecule: values may come before it. Activity calls are given as the source filed them. The calls are words filed in the database; no cut-off is given here.
Key:
[1] = target: Dipeptidyl peptidase 4 (Homo sapiens) (UniProt P27487); experiment: Inhibition of DPP4 at 100 uM
[2] = target: T1, Glucose-6-phosphatase catalytic subunit 1 (Homo sapiens) (UniProt P35575); experiment: Inhibition of glucose 6 phosphatase assessed as inorganic phosphate release at 100 uM
T1 sequence (whole entry): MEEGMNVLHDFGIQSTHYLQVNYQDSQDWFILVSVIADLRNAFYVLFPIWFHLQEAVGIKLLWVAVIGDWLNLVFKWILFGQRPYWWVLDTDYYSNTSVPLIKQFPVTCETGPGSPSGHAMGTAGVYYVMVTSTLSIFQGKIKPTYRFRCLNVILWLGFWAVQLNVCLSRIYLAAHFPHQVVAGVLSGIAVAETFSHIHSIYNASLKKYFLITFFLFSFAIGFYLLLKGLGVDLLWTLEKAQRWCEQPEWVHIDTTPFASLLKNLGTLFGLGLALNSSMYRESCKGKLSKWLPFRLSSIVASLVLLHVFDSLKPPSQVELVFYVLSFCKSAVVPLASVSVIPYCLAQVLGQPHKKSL

[3] = target: T2, Tyrosine-protein phosphatase non-receptor type 1 (Homo sapiens) (UniProt P18031); experiment: Inhibition of PTP1B at 100 uM
T2 sequence (whole entry): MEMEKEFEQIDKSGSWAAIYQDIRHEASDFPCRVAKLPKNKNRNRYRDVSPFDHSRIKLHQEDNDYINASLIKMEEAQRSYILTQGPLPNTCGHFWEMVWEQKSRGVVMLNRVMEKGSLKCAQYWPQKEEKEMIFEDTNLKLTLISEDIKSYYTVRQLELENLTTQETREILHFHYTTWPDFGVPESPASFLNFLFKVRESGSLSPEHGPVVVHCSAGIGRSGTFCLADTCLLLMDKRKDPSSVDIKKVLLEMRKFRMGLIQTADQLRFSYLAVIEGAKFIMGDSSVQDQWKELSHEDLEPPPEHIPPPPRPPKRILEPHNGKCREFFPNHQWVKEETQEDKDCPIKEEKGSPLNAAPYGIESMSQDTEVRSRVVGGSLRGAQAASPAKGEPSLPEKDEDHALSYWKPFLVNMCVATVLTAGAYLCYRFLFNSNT

[4] = target: Maltase-glucoamylase (Homo sapiens) (UniProt O43451); experiment: Inhibition of alpha-glucosidase at 100 uM
Maltase-glucoamylase (Homo sapiens), sequence (O43451 whole entry, looked up): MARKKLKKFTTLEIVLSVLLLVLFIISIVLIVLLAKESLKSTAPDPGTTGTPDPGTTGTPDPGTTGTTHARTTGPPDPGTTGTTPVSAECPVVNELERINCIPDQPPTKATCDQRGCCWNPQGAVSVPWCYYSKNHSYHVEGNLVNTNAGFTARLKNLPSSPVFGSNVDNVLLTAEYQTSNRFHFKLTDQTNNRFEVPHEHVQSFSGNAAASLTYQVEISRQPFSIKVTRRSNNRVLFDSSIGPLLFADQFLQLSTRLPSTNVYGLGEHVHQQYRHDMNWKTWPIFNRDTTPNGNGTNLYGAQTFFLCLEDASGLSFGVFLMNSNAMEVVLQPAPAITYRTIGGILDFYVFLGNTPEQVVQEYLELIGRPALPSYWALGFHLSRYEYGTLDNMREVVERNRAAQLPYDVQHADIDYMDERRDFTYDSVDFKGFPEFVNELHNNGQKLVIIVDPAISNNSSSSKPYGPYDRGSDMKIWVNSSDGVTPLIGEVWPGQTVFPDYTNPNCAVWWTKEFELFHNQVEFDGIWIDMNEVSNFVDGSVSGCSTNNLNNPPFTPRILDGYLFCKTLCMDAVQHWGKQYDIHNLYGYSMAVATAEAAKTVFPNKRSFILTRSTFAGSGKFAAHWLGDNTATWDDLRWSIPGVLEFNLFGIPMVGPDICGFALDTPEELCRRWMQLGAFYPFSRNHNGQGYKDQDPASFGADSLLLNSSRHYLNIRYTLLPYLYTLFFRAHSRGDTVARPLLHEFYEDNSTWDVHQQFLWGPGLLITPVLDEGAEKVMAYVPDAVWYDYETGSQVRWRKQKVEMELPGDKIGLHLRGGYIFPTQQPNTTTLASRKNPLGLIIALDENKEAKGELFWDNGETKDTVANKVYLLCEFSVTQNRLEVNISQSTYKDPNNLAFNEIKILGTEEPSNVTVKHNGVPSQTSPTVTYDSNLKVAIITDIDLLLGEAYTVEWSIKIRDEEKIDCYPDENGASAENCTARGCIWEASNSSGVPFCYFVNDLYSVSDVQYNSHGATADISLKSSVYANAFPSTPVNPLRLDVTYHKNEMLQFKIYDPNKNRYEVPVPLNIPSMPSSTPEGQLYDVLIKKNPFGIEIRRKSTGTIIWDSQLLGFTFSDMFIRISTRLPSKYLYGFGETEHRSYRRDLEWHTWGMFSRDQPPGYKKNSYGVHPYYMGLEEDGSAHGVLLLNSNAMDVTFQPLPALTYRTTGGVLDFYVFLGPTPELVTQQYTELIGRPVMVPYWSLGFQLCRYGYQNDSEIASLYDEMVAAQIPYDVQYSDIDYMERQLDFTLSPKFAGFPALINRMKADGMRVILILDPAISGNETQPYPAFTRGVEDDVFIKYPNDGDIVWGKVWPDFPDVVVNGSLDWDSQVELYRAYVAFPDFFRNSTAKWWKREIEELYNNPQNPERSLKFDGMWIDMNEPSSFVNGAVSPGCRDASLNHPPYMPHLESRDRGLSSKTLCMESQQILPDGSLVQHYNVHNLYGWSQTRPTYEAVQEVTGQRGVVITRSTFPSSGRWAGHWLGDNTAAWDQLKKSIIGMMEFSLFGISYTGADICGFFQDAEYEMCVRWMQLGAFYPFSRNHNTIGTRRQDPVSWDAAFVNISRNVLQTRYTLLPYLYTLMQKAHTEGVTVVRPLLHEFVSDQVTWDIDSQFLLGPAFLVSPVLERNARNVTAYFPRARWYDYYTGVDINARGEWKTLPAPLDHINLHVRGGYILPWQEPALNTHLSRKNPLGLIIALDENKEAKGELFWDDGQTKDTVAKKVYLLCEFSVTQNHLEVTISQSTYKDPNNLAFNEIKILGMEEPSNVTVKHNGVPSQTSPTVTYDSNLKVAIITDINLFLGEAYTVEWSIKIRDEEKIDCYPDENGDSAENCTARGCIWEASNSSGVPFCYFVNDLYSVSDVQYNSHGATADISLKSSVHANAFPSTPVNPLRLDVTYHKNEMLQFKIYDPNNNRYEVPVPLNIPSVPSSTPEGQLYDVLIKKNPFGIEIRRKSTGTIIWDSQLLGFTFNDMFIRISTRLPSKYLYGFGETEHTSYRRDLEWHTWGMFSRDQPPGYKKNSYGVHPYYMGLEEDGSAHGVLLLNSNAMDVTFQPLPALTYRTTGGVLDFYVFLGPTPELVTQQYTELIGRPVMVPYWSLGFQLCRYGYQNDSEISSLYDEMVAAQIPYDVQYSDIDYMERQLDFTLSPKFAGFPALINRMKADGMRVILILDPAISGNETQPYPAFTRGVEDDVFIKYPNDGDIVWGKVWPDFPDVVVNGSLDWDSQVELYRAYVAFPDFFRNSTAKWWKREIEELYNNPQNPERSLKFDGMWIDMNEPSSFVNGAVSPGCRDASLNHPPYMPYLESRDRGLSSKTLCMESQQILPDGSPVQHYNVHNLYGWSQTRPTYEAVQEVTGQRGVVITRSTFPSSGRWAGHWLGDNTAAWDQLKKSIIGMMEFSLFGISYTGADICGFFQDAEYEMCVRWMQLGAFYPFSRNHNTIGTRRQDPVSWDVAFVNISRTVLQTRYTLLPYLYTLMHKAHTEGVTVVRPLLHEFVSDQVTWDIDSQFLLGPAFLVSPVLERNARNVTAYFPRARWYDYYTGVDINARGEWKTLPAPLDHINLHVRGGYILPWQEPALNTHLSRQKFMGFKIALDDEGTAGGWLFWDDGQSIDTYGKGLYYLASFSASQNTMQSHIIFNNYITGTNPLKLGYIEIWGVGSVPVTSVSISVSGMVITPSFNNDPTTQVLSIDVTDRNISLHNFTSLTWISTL

[5] = Inhibition of glycogen phosphorylase assessed as inorganic phosphate release at 100 uM
[6] = target: T3, Tyrosine-protein phosphatase non-receptor type 1 (Homo sapiens, UniProt P18031); experiment: Inhibition of PTP1B
T3 sequence (P18031 whole entry): T2 sequence (whole entry)

[7] = test system: Rattus norvegicus; experiment: Antidyslipidemic activity against triton WR-1339-induced hyperlipidemia in Charles Foster rat assessed as reduction in plasma phospholipid level at 100 mg/kg, po after 18 hrs; format: functional
[8] = test system: Rattus norvegicus; experiment: Antidyslipidemic activity against triton WR-1339-induced hyperlipidemia in Charles Foster rat assessed as reduction in plasma triglyceride level at 100 mg/kg, po after 18 hrs; format: functional
[9] = test system: Rattus norvegicus; experiment: Antidyslipidemic activity against triton WR-1339-induced hyperlipidemia in Charles Foster rat assessed as reduction in plasma total cholesterol level at 100 mg/kg, po after 18 hrs; format: functional
[10] = test system: Mus musculus; experiment: Antihyperglycemic in leptin receptor deficient mouse C57BL/KsBom-db assessed as blood glucose lowering activity at 100 mg/kg after 5 days by oral glucose tolerance test; format: functional
[11] = test system: Mus musculus; experiment: Antihyperglycemic in leptin receptor deficient mouse C57BL/KsBom-db assessed as blood glucose lowering activity at 100 mg/kg after 10 days by oral glucose tolerance test; format: functional
[12] = test system: Rattus norvegicus; experiment: Antihyperglycemic activity in sucrose challenged streptozotocin-induced diabetic Sprague-Dawley rat model assessed as reduction in blood glucose level at 100 mg/kg after 24 hrs; format: functional; design: scale not given: the % may be the effect or the level left
[13] = test system: Rattus norvegicus; experiment: Antihyperglycemic activity in sucrose loaded Charles Foster/Wistar rat model assessed as reduction in blood glucose level at 100 mg/kg; format: functional; design: scale not given: the % may be the effect or the level left

Dipeptidyl peptidase 4 (Homo sapiens), sequence (P27487 whole entry, looked up): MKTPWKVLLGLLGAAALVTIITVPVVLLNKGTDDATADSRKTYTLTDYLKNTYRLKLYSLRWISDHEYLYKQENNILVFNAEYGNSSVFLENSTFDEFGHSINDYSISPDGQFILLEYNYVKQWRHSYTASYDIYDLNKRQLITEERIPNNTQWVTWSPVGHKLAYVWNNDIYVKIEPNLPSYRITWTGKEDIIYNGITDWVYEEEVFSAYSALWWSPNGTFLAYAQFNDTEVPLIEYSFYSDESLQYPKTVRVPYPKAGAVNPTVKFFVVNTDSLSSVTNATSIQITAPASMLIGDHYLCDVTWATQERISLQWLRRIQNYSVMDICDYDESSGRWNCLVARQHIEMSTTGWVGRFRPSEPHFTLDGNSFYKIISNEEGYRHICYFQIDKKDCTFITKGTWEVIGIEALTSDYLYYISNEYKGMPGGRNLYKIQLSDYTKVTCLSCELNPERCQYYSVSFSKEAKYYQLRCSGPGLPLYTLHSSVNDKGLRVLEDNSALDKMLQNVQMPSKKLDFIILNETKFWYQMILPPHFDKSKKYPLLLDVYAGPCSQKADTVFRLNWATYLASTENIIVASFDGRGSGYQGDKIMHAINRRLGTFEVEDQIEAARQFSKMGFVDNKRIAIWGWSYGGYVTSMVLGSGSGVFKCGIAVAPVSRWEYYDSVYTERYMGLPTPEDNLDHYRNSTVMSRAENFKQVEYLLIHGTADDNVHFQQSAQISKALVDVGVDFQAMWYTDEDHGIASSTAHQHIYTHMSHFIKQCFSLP

Compound: CCOCC1(CN2CCN(c3ccccn3)CC2)COc2ccc3c(C)cc(=O)oc3c2C1=O (stereo not drawn)
- IC50 [6]: 76.2 µM
- inhibition [1]: inactive
- inhibition [2]: 9.67%
- inhibition [3]: 54.5%
- inhibition [4]: 11.3%
- inhibition [5]: 30.1%

Compound: CCOCC1(CN2CCCCC2)COc2ccc3c(C)cc(=O)oc3c2C1=O (stereo not drawn)
- Activity [7]: Active
- IC50 [6]: 36.2 µM
- inhibition [1]: 12.6%
- inhibition [2]: 6.56%
- Activity [10]: 19.5%
- inhibition [3]: 88.5%
- Activity [11]: 42%
- Activity [12]: 37.7%
- inhibition [4]: inactive
- Activity [8]: Active
- Activity [13]: 38.1%
- inhibition [5]: 8.5%
- Activity [9]: Active

Compound: Cc1cc(=O)oc2c3c(ccc12)OCC(CO)(CN1CCOCC1)C3=O (stereo not drawn)
- Activity [7]: Active
- IC50 [6]: 52.4 µM
- inhibition [1]: 12%
- inhibition [2]: 3.5%
- inhibition [3]: 83.3%
- Activity [12]: 25.3%
- inhibition [4]: 34.3%
- Activity [8]: Active
- Activity [13]: 28.2%
- inhibition [5]: inactive
- Activity [9]: Active

Compound: Cc1cc(=O)oc2c3c(ccc12)OCC(CN1CCCCC1)(CN1CCCCC1)C3=O
- inhibition [1]: 6.8%
- inhibition [2]: 13.8%
- inhibition [3]: 33.3%
- inhibition [4]: 7.3%
- inhibition [5]: 17.2%

Compound: CCOCC1(CN2CCN(c3ccccc3)CC2)COc2ccc3c(C)cc(=O)oc3c2C1=O (stereo not drawn)
- IC50 [6]: 70.6 µM
- inhibition [1]: inactive
- inhibition [2]: 31.7%
- inhibition [3]: 62.3%
- inhibition [4]: 16.2%
- inhibition [5]: inactive

Compound: Cc1cc(=O)oc2c3c(ccc12)OCC(CN1CCN(c2ccccn2)CC1)(CN1CCN(c2ccccn2)CC1)C3=O
- inhibition [1]: 9.8%
- inhibition [2]: 28%
- inhibition [3]: 41.3%
- inhibition [4]: 15.8%
- inhibition [5]: 11%

Compound: Cc1cc(=O)oc2c3c(ccc12)OCC(CN1CCCC1)(CN1CCCC1)C3=O
- inhibition [1]: 8.2%
- inhibition [2]: 8.28%
- inhibition [3]: 29.8%
- inhibition [4]: inactive
- inhibition [5]: 15.2%

Compound: Cc1cc(=O)oc2c3c(ccc12)OCC(CN1CCOCC1)(CN1CCOCC1)C3=O
- inhibition [1]: 8.8%
- inhibition [2]: 6.78%
- inhibition [3]: 24.7%
- inhibition [4]: 8.3%
- inhibition [5]: 12.8%

Compound: Cc1cc(=O)oc2c3c(ccc12)OCC(CO)(CN1CCCCC1)C3=O (stereo not drawn)
- Activity [7]: Active
- IC50 [6]: 62.1 µM
- inhibition [1]: inactive
- inhibition [2]: 7.36%
- inhibition [3]: 64%
- inhibition [4]: 37.3%
- Activity [8]: Active
- inhibition [5]: inactive
- Activity [9]: Active

Compound: Cc1cc(=O)oc2c3c(ccc12)OCC(CN1CCN(C)CC1)(CN1CCN(C)CC1)C3=O
- inhibition [1]: 12.5%
- inhibition [2]: 13%
- inhibition [3]: 22%
- inhibition [4]: 6.4%
- inhibition [5]: 10.2%

Compound: Cc1cc(=O)oc2c3c(ccc12)OCC(CN1CCN(c2ccccc2)CC1)(CN1CCN(c2ccccc2)CC1)C3=O
- inhibition [1]: 15.2%
- inhibition [2]: 21.5%
- inhibition [3]: 28.7%
- inhibition [4]: 15.9%
- inhibition [5]: 22.1%

Compound: Cc1cc(=O)oc2c3c(ccc12)OCC(CO)(CN1CCCC1)C3=O (stereo not drawn)
- IC50 [6]: 56.7 µM
- inhibition [1]: 8.3%
- inhibition [2]: 5.83%
- inhibition [3]: 74.6%
- Activity [12]: 24%
- inhibition [4]: 22.1%
- Activity [13]: 30.3%
- inhibition [5]: 8.3%

Compound: Cc1ccc(C)c(OCCCC(C)(C)C(=O)O)c1 [GEMFIBROZIL]
- Activity [7]: 39.1%
- Activity [8]: 36.1%
- Activity [9]: 37.1%

Continued, in another order:

- inhibition [1]: 11.4%
- inhibition [2]: 20.4%
- inhibition [3]: 43.6%
- inhibition [4]: inactive
- inhibition [5]: 11.1%
Compound: CCCCN(CCCC)CC1(CN(CCCC)CCCC)COc2ccc3c(C)cc(=O)oc3c2C1=O

- IC50 [6]: 90.4 µM
- inhibition [1]: inactive
- inhibition [2]: 24.2%
- inhibition [3]: 74.1%
- inhibition [4]: inactive
- inhibition [5]: inactive
Compound: CCOCC1(CN(CC)CC)COc2ccc3c(C)cc(=O)oc3c2C1=O (stereo not drawn)
- Activity [7]: Active
- Activity [8]: Active
- Activity [9]: Active

- IC50 [6]: 65.5 µM
- inhibition [1]: 7.9%
- inhibition [2]: 17.4%
- inhibition [3]: 70.3%
- inhibition [4]: inactive
- inhibition [5]: 26.9%
Compound: CCOCC1(CN2CCN(C)CC2)COc2ccc3c(C)cc(=O)oc3c2C1=O (stereo not drawn)
- Activity [7]: Active
- Activity [12]: 18.7%
- Activity [8]: Active
- Activity [13]: 32.5%
- Activity [9]: Active

- inhibition [1]: 8.1%
- inhibition [2]: 9.45%
- inhibition [3]: 41.3%
- inhibition [4]: 8.5%
- inhibition [5]: 12.2%
Compound: CCN(CC)CC1(CN(CC)CC)COc2ccc3c(C)cc(=O)oc3c2C1=O

- IC50 [6]: 24.5 µM
- inhibition [1]: inactive
- inhibition [2]: 12.4%
- inhibition [3]: 92.2%
- inhibition [4]: inactive
- inhibition [5]: 8.4%
Compound: CCOCC1(CN2CCOCC2)COc2ccc3c(C)cc(=O)oc3c2C1=O (stereo not drawn)
- Activity [7]: Active
- Activity [10]: 21.1%
- Activity [11]: 38%
- Activity [12]: 35.5%
- Activity [8]: Active
- Activity [13]: 35.5%
- Activity [9]: Active

- IC50 [6]: 40.5 µM
- inhibition [1]: inactive
- inhibition [2]: 11.1%
- inhibition [3]: 80.5%
- inhibition [4]: 27.9%
- inhibition [5]: 8.7%
Compound: CCCCN(CCCC)CC1(COCC)COc2ccc3c(C)cc(=O)oc3c2C1=O (stereo not drawn)
- Activity [7]: Active
- Activity [12]: 24.4%
- Activity [8]: Active
- Activity [13]: 30.6%
- Activity [9]: Active

- IC50 [6]: 82.7 µM
- inhibition [1]: 13.2%
- inhibition [2]: 8.31%
- inhibition [3]: 72.1%
- inhibition [4]: 12%
- inhibition [5]: 8.3%
Compound: CCOCC1(CN2CCCC2)COc2ccc3c(C)cc(=O)oc3c2C1=O (stereo not drawn)
- Activity [12]: 28.8%
- Activity [13]: 31.8%

Source: ChEMBL document CHEMBL1154339, “Pyranocoumarins: a new class of anti-hyperglycemic and anti-dyslipidemic agents” (Bioorg Med Chem Lett, 2009)
